Where two headings read alike, the source gives them in different places.
Assays:
TRKA Protein (wild type) = molecular target: T1, TRKA Protein (wild type) (Homo sapiens, UniProt P04629); assay: Detection of TRK inhibitory activity (ADP-Glo kinase assay), TRKA wild type; format: biochemical; details: 35 min at room temperature
T1 construct: purchased abcam ab60887
Description: (§1) An enzyme reaction buffer was prepared containing 25 mM MOPS, 5 mM MgCl2, 500 μM DTT and 0.005% Triton, and then adjusted to pH 7.5.
(§2) The test compound was diluted with DMSO to 200 times of the desired final concentration, and mixed evenly, then 3 μL of the solution was pipetted to 117 μL of enzyme reaction buffer and mixed thoroughly. Then, 3 μL of the enzyme reaction buffer containing the test compound was pipetted to a 96-well PCR plate. The positive and negative control wells were filled with 3 μL of enzyme reaction buffer containing 2.5% DMSO, respectively. TRK protein was diluted to 0.4 ng/μL with the enzyme reaction buffer, and 6 μL of diluted TRK protein was added to each well except for the well for the blank control group, in which 6 μL of the enzyme reaction buffer was added. The reaction plate was centrifuged at 1000 rpm/min for 1 minute, and the compound and TRK were pre-incubated at room temperature for 10 minutes. A mixed solution with ATP at a concentration of 160 μM and substrate at a concentration of 1 μM was prepared with the enzyme reaction buffer, and 6 μL of the mixed solution was added to each reaction well. The reaction plate was centrifuged at 1000 rpm/min for 1 minute, and incubated at room temperature for 35 minutes. After the enzyme reaction was completed, 15 μL of ADP-Glo was added to each reaction well. The reaction plate was centrifuged at 1000 rpm/min for 1 minute, and incubated at room temperature for 40 minutes. Then 15 μL of the reaction solution from each well was transferred to a 384-well plate, and then 15 μL of detection substrate was added to each corresponding well of the 384-well plate. The 384-well plate was centrifuged at 1000 rpm/min for 1 minute, and incubated at room temperature for 40 minutes. After the reaction, a microplate reader was used to read the cold luminescence signal value in the 384-well plate.
(§3) The residual viability percentage of each concentration was calculated with the following formula: Residual viability (%)=100*(Lumincompond−Luminblank control)/(Luminpostive control−Luminblank control)
(§4) Then, GraphPad 5.0 was fitted to the effect curve to calculate the IC50 value.

TRKA (G667C) = TRKA (G667C) (Homo sapiens, UniProt P04629, G667C); assay: Detection of TRK inhibitory activity (ADP-Glo kinase assay), TRKA (G667C); format: biochemical
Description: as §1, §2, §3, §4

[1] = test system: Ba/F3 ETV6-NTRK3-G623R cell line; assay: Cell experiment, CellTiter-Glo viability, Ba/F3 ETV6-NTRK3-G623R; format: cell-based; details: Mus musculus, BaF3, 72 hours, CTG
Description: Cell culture and seeding: (1) cells in logarithmic growth phase were harvested and counted using a […]. The cell viability was detected by trypan blue exclusion method to ensure that the cell viability was above 90%. (2) The cell concentration was adjusted; and 90 μl of cell suspension was added to the 96-well plate.
10 μl of drug solution was added to each well in a 96-well plate inoculated with cells, triplicate per concentration.
End-point for reading: (1) The CTG reagent was thawed and the cell plate was equilibrated to room temperature for 30 minutes. (2) Equal volume of CTG solution was added to each well. (3) The plated was shaken on an orbital shaker for 5 minutes to lyse the cells. (4) The cell plate was placed at room temperature for 20 minutes to stabilize the cold light signal. (5) The cold light value was read.
GraphPad Prism 7.0 software was used to analyze the data, and nonlinear S-curve regression was fitted the data to get the dose-effect curve, and the IC50 value was calculated therefrom. Cell survival (%)=(Lumtest drug−Lumculture control)/(Lumcell control−Lumculture control)×100%.

Sequence of TRKA (G667C) (P04629 33-796 G667C): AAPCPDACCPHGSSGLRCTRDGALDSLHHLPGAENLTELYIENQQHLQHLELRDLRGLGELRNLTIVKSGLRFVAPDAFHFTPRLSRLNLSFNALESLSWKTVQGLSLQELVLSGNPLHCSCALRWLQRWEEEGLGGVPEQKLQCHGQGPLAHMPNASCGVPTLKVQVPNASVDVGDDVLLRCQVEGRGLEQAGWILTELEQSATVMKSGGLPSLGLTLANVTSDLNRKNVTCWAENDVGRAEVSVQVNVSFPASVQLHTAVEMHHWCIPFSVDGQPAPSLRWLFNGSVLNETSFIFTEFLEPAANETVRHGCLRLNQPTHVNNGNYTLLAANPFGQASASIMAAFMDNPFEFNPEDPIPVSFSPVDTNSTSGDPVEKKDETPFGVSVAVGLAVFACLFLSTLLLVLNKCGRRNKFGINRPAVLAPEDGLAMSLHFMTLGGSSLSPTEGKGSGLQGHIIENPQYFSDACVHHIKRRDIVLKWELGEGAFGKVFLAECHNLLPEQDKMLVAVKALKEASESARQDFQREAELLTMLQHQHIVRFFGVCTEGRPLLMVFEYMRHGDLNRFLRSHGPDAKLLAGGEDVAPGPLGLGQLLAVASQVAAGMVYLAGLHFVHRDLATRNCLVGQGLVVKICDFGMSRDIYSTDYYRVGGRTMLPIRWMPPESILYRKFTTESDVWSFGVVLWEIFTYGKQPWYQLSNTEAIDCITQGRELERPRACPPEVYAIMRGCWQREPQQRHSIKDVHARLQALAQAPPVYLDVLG
T1 sequence (P04629 33-796): as the sequence (P04629 33-796 G667C) above, with C635G counted along it

| Structure (SMILES) | IC50 (TRKA Protein (wild type)) [nM] | IC50 (TRKA (G667C)) [nM] | also measured |
| --- | --- | --- | --- |
| CN1Cc2cc(F)ccc2OCCCNc2ncnc3ccc1nc23 [Example 3, 6-fluoro-2-methyl-10-oxa-2,14,16,18,22-pentaazatetracyclo [13.6.2.0^4,^9.0^19,^23] tricosane-1(22),4,6,8,15(23),16,18,20-octane] | < 50 | < 50 |  |
| C[C@H]1CCNc2c(C(=O)O)cnc3ccc(nc23)N2CCC[C@@H]2c2cc(F)ccc2O1 |  |  | ring closure, yield of all isomers (from C[C@@H](CCNc1c(C(=O)O)cnc2ccc(Cl)nc12)Oc1ccc(F)cc1[C@H]1CCCN1, cn_pd bond, Pd2(dba)3/SPhos/Cs2CO3, toluene, 62.5 mM, 100.0 °C, 16.0 h): 52% |
| C[C@@H]1CCOc2ccc(F)cc2[C@@H](C)Nc2ccc3ncc(F)c(c3n2)N1 [Example 18, (R,R)-6,16-difluoro-3,13-dimethyl-10-oxa-2,14,18,22-tetraazatetracyclo[13.6.2.0^4,^9.0^19,^23]tricosane-1(22),4,6,8,15(23),16,18,20-octane] | < 50 | < 50 | ring closure, yield of all isomers (from C[C@H](CCOc1ccc(F)cc1[C@@H](C)N)Nc1c(F)cnc2ccc(Cl)nc12, cn_pd bond, SPhos Pd G3/SPhos/Cs2CO3, toluene, 90.0 mM, 100.0 °C, 16.0 h): 8.2% |
| O=C(O)c1cnc2ccc3nc2c1NCCCOc1ccc(F)cc1[C@H]1CCCN31 [Example 10, (6R)-9-fluoro-13-oxa-2,17,21,25-tetraazapentacyclo [16.6.2.0^2,^6.0^7,^12.0^22,^26]hexacosane-1(25),7,9,11,18(26),19,21,23-octane-19-carboxylic acid] | 50 to 500 |  |  |
| Fc1cnc2c(c1)[C@H]1CCCN1c1ccc3ncnc(c3n1)NCCCC2 [Example 15, (6R)-9-fluoro-2,11,17,19,21,25-hexaazapentacyclo [16.6.2.0^2,^6.0^7,^12.0^22,^26]hexacosane-1(25),7,9,11,18(26),19,21,23-octane] | < 50 | < 50 |  |
| CCOC(=O)c1cnc2ccc3nc2c1N[C@H](C)CCOc1ccc(F)cc1[C@H]1CCCN31 |  |  | ring closure, yield of all isomers (from CCOC(=O)c1cnc2ccc(Cl)nc2c1N[C@H](C)CCOc1ccc(F)cc1[C@H]1CCCN1, cn_pd bond, Pd2(dba)3/SPhos/Cs2CO3, toluene, 64.4 mM, 100.0 °C, 16.0 h): 54% |
| C[C@H]1CCNc2ncnc3ccc(nc23)N2CCC[C@@H]2c2cc(F)ccc2O1 [Example 7, (6R,14S)-9-fluoro-14-methyl-13-oxa-2,17,19,21,25-pentaazapentacyclo[16.6.2.0^2,^6.0^7,^12.0^22,^26]hexacosane-1(25),7,9,11,18(26),19,21,23-octane] | < 50 | < 50 | IC50 [1]: 3.6 nM; IC90 [1]: 8.7 nM |
| C[C@H]1CCOc2ccc(F)cc2[C@@H]2CCCN2c2ccc3ncc(C#N)c(c3n2)N1 [Example 13, (6S,16S)-9-fluoro-16-methyl-13-oxa-2,17,21,25-tetraazapentacyclo [16.6.2.0^2,^6.0^7,^12.0^22,^26]hexacosane-1(25),7,9,11,18(26),19,21,23-octane-19-nitrile] | 50 to 500 |  |  |
| C[C@@H]1CCOc2ccc(F)cc2CN(C)c2ccc3ncnc(c3n2)N1 [Example 5, (13R)-6-fluoro-2,13-dimethyl-10-oxa-2,14,16,18,22-pentaazatetracyclo[13.6.2.0^4,^9.0^19,^23]tricosane-1(22),4,6,8,15(23),16,18,20-octane] | < 50 | < 50 |  |
| COc1ccc(CN2CC[C@H](C)Oc3ccc(F)cc3[C@H]3CCCN3c3ccc4ncnc2c4n3)c(OC)c1 |  |  | ring closure, yield of all isomers (from COc1ccc(CN(CC[C@@H](C)O)c2ncnc3ccc(N4CCC[C@@H]4c4cc(F)ccc4O)nc23)c(OC)c1, ether bond, DIAD/triphenylphosphine (printed as triphenylphosphine oxide), tetrahydrofuran, 72.0 mM, 25.0 °C, 3.0 h): 72.3% |
| N#Cc1cnc2ccc3nc2c1NCCCOc1ccc(F)cc1[C@H]1CCCN31 [Example 12, (6R)-9-fluoro-13-oxa-2,17,21,25-tetraazapentacyclo [16.6.2.0^2,^6.0^7,^12.0^22,^26]hexacosane-1(25),7,9,11,18(26),19,21,23-octane-19-nitrile] | < 50 | < 50 |  |
| NC(=O)c1cnc2ccc3nc2c1NCCCOc1ccc(F)cc1[C@H]1CCCN31 [Example 11, (6R)-9-fluoro-13-oxa-2,17,21,25-tetraazapentacyclo [16.6.2.0^2,^6.0^7,^12.0^22,^26]hexacosane-1(25),7,9,11,18(26),19,21,23-octane-19-carboxamide] | < 50 | < 50 |  |
| C[C@@H]1CCCc2ncc(F)cc2[C@H]2CCCN2c2ccc3ncnc(c3n2)N1 [Example 16, (6R,16R)-9-fluoro-16-methyl-2,11,17,19,21,25-hexaazapentacyclo [16.6.2.0^2,^6.0^7,^12.0^22,^26]hexacosane-1(25),7,9,11,18(26),19,21,23-octane] | < 50 | < 50 |  |
| CCOC(=O)c1cnc2ccc3nc2c1NCCCOc1ccc(F)cc1[C@H]1CCCN31 [Example 9, ethyl (6R)-9-fluoro-13-oxa-2,17,21,25-tetraazapentacyclo [16.6.2.0^2,^6.0^7,^12.0^22,^26]hexacosane-1(25),7,9,11,18(26),19,21,23-octane-19-carboxylate] | < 50 | > 500 |  |
| C[C@H]1CCOc2ccc(F)cc2[C@H]2CCCN2c2ccc3ncc(C#N)c(c3n2)N1 [Example 8, (6R,16S)-9-fluoro-16-methyl-3-oxa-2,17,21,25-tetraazapentacyclo [16.6.2.0^2,^6.0^7,^12.0^22,^26]hexacosane-1(25),7,9,11,18(26),19,21,23-octane-19-nitrile] | < 50 |  |  |
| CN1Cc2cc(F)ccc2OCCNc2ncnc3ccc1nc23 [Example 4, 6-fluoro-2-methyl-10-oxa-2,13,15,17,21-pentaazatetracyclo [12.6.2.0^4,9.0^18,^22]docosane-1(21),4,6,8,14(22),15,17,19-octane] | 50 to 500 |  |  |
| C[C@@H]1CCOc2ccc(F)cc2[C@H]2CCCN2c2ccc3ncc(F)c(c3n2)N1 [Example 19, (6R,16R)-9,19-difluoro-16-methyl-13-oxa-2,17,21,25-tetraazapentacyclo[16.6.2.0^2,^6.0^7,^12.0^22,^26]hexacosane-1(25),7,9,11,18(26),19,21,23-octane] | < 50 | < 50 | ring closure, yield of all isomers (from C[C@H](CCOc1ccc(F)cc1[C@H]1CCCN1)Nc1c(F)cnc2ccc(Cl)nc12, cn_pd bond, SPhos Pd G3, toluene/tert-butanol, 35.0 mM, 100.0 °C, 16.0 h): 8.1% |
| C[C@H]1CCNc2c(C#N)cnc3ccc(nc23)N2CCC[C@@H]2c2cc(F)ccc2O1 [Example 2, (6R,14S)-9-fluoro-14-methyl-3-oxa-2,17,21,25-tetraazapentacyclo [16.6.2.0^2,^6.0^7,^12.0^22,^26]hexacosane-1(25),7,9,11,18(26),19,21,23-octane-19-nitrile] | < 50 | < 50 |  |
| C[C@@H]1CCOc2ccc(F)cc2[C@@H]2CCCN2c2ccc3ncc(C#N)c(c3n2)N1 [Example 14, (6S,16R)-9-fluoro-16-methyl-3-oxa-2,17,21,25-tetraazapentacyclo [16.6.2.0^2,^6.0^7,^12.0^22,^26]hexacosane-1(25),7,9,11,18(26),19,21,23-octane-19-nitrile] | 50 to 500 |  |  |
| C[C@H]1Nc2ccc3ncnc(c3n2)NCCCOc2ccc(F)cc21 [Example 17, 6-fluoro-3-methyl-10-oxa-2,14,16,18,22-pentaazatetracyclo [13.6.2.0^4,^9.0^19,^23] tricosane-1 (22),4,6,8,15(23),16,18,20-octane] | < 50 | < 50 | ring closure, yield of all isomers (from C[C@@H](N)c1cc(F)ccc1OCCCNc1ncnc2ccc(Cl)nc12, cn_pd bond, Pd2(dba)3/SPhos/Cs2CO3, toluene, 12.2 mM, 110.0 °C, 16.0 h): 5.4% |
| C[C@@H]1CCOc2ccc(F)cc2[C@H]2CCCN2c2ccc3ncnc(c3n2)N1 [Example 6, (6R,16R)-9-fluoro-16-methyl-13-oxa-2,17,19,21,25-pentaazapentacyclo[16.6.2.0^2,^6.0^7,^12.0,^26]hexacosane-1(25),7,9,11,18(26),19,21,23-octane] | < 50 | < 50 | IC50 [1]: 42.1 nM; IC90 [1]: 94.2 nM |

Source: US11584759B2, “Macrocyclic kinase inhibitor” (HITGEN INC., priority 2018, dated 2023)
